Experimental data reported in patent US11261187B2, “Compounds and methods for targeting HSP90” (Duke University, priority 2016, dated 2022).

Tests used:
MDA-MB-468 cells [1] = assay: Confocal imaging of eHsp90 puncta in probe-treated tumor cells; assay type: cell-based
Experimental: (§1) Cells were plated on uncoated 18-mm round coverslips in 12 well plates at 150,000 cells/well and were allowed to adhere overnight. 100, in a stock solution in DMSO, was diluted in serum-free/phenol red-free DMEM. After drug incubation, the cells were washed twice with ice-cold PBS, fixed with 1% PFA in PBS for 10 min, and stained with 5 μg/mL wheat germ agglutinin-488 (WGA-488, Invitrogen, Waltham, Mass.) and either Hoescht or DAPI. The coverslips were washed and mounted onto microscope slides using FluorSave mounting reagent (Millipore, Darmstadt, Germany). Slides were imaged on a Leica SP5 confocal microscope.
(§2) Images were analyzed for fluorescence and puncta using ImageJ software using a non-biased, high-throughput macro. In brief, cells were selected using an expanded selection from the DAPI channel. The regions of interest were then masked, a watershed filter was applied to split adjacent cells into separate cells, and the regions of interest were applied to the 100 channel to measure fluorescence and puncta. High resolution confocal stacks were deconvolved with Hyugen's Deconvolution Software or AiryScan.
Using a standard fluorescence curve, the concentration within the puncta of 100 was estimated to be 4.66±0.05 μM. […]

non-malignant cells = assay: Puncta formation on non-malignant cells; assay type: cell-based
Experimental: Using a standard fluorescence curve, the concentration within the puncta of 100 was estimated to be 4.66±0.05 μM. Based on puncta volume and a ratio of 1:1 for 100:Hsp90 (as each monomer of Hsp90 has a single ATP-binding site), the larger puncta are estimated to contain 2659±105 monomers of eHsp90. Accumulation of the puncta intracellularly is time-dependent (FIG. 3b). Formation of the puncta is eHsp90-dependent and not related to any physiochemical properties of the probes themselves. […] This diffusion may be a result of exchange with intracellular ATP or the degradation of the internalized eHsp90. Probe aggregates alone would not be expected to spontaneously dissipate without the addition of some form of organic solvent.

[2] = Storage stability by LC/MS at a later date; assay type: physicochemical; settings: primarily to the hydride
Experimental: Compound 116 (50 mg, 33 μmol), hexamethylditin (14 mg, 9 μL, 42 μmol) and tetrakis triphenylphosphine palladium(0) (1 mg 1 μmol) were slurried in dioxane (1 mL), purged with nitrogen for 30 m and heated to 100° C. for an hour. The reaction was mixture was adsorbed onto silica gel and chromatographed (50 g C18, 0.2% formic acid to 100% MeOH) to give product 118 (13.9 mg, 27%) as a blue solid. LC/MS gives a single peak with a little shoulder with m/z=785.8 [M+2H]^2+ as part of a cluster typical of Tin compounds.

[3] = test system: MMTV-neu spontaneous mammary tumor; assay: Cryo-imaging and histology of MMTV-neu spontaneous mammary tumor mice; assay type: in vivo, mouse
Source text: […] Slices of 5-μm thickness were cut and placed on slides to dry overnight. Slides were then deparaffinized and either H&E stained or rehydrated and stained with DAPI before mounting. Slides were imaged at 20× magnification on a Zeiss Axio Imager widefield fluorescence microscope equipped with a color camera.
To investigate the tumor specificity and eHsp90 internalization in a more relevant model of human breast cancer, the MMTV-neu spontaneous mammary tumor mouse model was used (FIGS. 4c-d). […] Following cryoslicing, each 40 μm slice was imaged for fluorescence and brightfield. […] Previous studies have reported the autofluorescence of Leydig cells in the testes due to the presence of a lipophilic pigment.

MDA-MB-468 cells [4] = assay: 100 internalization assay in MDA-MB-468 cells; assay type: cell-based; settings: MDA-MB-468 cells; dose and time series
Experimental: as §1, §2
(§3) To analyze the internalization of eHsp90 in transformed cells, the 4T1 cell model was utilized.

eHsp90 [5] = assay: Competition of fluorescent probe binding to eHsp90 on cells by untethered Hsp90 inhibitors; assay type: cell-based
Experimental: Cells were plated on uncoated 18-mm round coverslips in 12 well plates at 150,000 cells/well and were allowed to adhere overnight. 100, in a stock solution in DMSO, was diluted in serum-free/phenol red-free DMEM. […] The coverslips were washed and mounted onto microscope slides using FluorSave mounting reagent (Millipore, Darmstadt, Germany). Slides were imaged on a Leica SP5 confocal microscope.
as §2, §3

eHsp90 [6] = assay: Live imaging and tracking of puncta (lattice light sheet microscope); assay type: cell-based; settings: 10 μM 100 competed with 100 μM HS-10
Experimental: Live imaging was also performed on cells treated with 100 alone, 101, or 100 and HS-10, and spots were tracked over time to investigate any differences in puncta movement and size. […] Puncta detected with 100 were competed with HS-10 (FIG. 3d).

SMILES: CCOCCCNCc1ccc(C(=C\C=C2\N(CCCCS(=O)(=O)O)c3ccccc3C2(C)C)/C=C/C2=[N+](CCCCS(=O)(=O)[O-])c3ccccc3C2(C)C)cc1 [Compound 19, 4-(2-((1E,3Z)-5-((E)-3,3-dimethyl-1-(4-sulfobutyl)indolin-2-ylidene)-3-(4-(((3-ethoxypropyl)amino)methyl)phenyl)penta-1,3-dien-1-yl)-3,3-dimethyl-3H-indol-1-ium-1-yl)butane-1-sulfonate]
- puncta formation when applied to cells (MDA-MB-468 cells [1]): does not form puncta

SMILES: Cc1nn(-c2ccc(C(N)=O)c(NCCCOCCOCCOCCOCCOCCCNC(=S)Nc3ccc4c(c3)C(=O)OC43c4ccc(O)cc4Oc4cc(O)ccc43)c2)c2c1C(=O)CC(C)(C)C2 [HS-27, reference compound]
- puncta formation when applied to cells (MDA-MB-468 cells [1]): forms puncta
- puncta formation on non-malignant cells (non-malignant cells): puncta do not form

SMILES: Cc1nn(-c2ccc(C(N)=O)c(NCCCOCCOCCOCCOCCOCCCN(Cc3ccc(C(=C\C=C4\N(CCCCS(=O)(=O)O)c5ccccc5C4(C)C)/C=C/C4=[N+](CCCCS(=O)(=O)[O-])c5ccccc5C4(C)C)cc3)Cc3ccc[c]([Sn]([CH3])([CH3])[CH3])c3)c2)c2c1C(=O)CC(C)(C)C2 [Compound 118, 4-(2-((E,3Z)-3-(4-(21-((2-carbamoyl-5-(3,6,6-trimethyl-4-oxo-4,5,6,7-tetrahydro-1H-indazol-1-yl)phenyl)amino)-2-(3-(trimethylstannyl)benzyl)-6,9,12,15,18-pentaoxa-2-azahenicosyl)phenyl)-5-((E)-3,3-dimethyl-1-(4-sulfobutyl)indolin-2-ylidene)penta-1,3-dien-1-yl)-3,3-dimethyl-3H-indol-1-ium-1-yl)butane-1-sulfonate]
- stability on storage [2]: significant decomposition

SMILES: Cc1nn(-c2ccc(C(=O)N(C)C)c(NCCCOCCOCCOCCOCCOCCCNCc3ccc(C(=C\C=C4\N(CCCCS(=O)(=O)O)c5ccccc5C4(C)C)/C=C/C4=[N+](CCCCS(=O)(=O)[O-])c5ccccc5C4(C)C)cc3)c2)c2c1C(=O)CC(C)(C)C2 [Compound 101, 4-(2-((1E,3Z)-5-((E)-3,3-dimethyl-1-(4-sulfobutyl)indolin-2-ylidene)-3-(4-(21-((2-(dimethylcarbamoyl)-5-(3,6,6-trimethyl-4-oxo-4,5,6,7-tetrahydro-1H-indazol-1-yl)phenyl)amino)-6,9,12,15,18-pentaoxa-2-azahenicosyl)phenyl)penta-1,3-dien-1-yl)-3,3-dimethyl-3H-indol-1-ium-1-yl)butane-1-sulfonate]
- probe uptake in MMTV-neu mammary tumor ([3]; 25 nmol i.v., 6 hours, cryoslicing and histology): No uptake was observed
- specific drug fluorescence in duct epithelium of tumor cells (histology) ([3]; FIG. 5, serial sections, DAPI/Cy5): not in the 101-treated mouse
- uptake of probe (MDA-MB-468 cells [4]): only weakly internalized at higher concentrations

SMILES: Cc1nn(-c2ccc(C(N)=O)c(N[C@H]3CC[C@H](O)CC3)c2)c2c1C(=O)CC(C)(C)C2 [HS-10]
- competition of binding of probe 100 to eHsp90 (eHsp90 [5]; MDA-MB-468 cells, 100 at 25 μM, 45 min, 1 μM HS-10 or 10 μM PUH71): competed
- blocking of binding of 100 and HS-27 to eHsp90 (eHsp90 [5]; untethered Hsp90 inhibitors): blocked
- competition of puncta detected with 100 (eHsp90 [6]): competed
